According to US20140377241A1, “BIOPREPARATION BALIS FOR THE PROPHYLAXIS AND TREATMENT OF INFECTIOUS DISEASES” (priority 2010, published 2014):
Where two headings read alike, the source gives them in different places.

Experiments:
[1] = test system: B. subtilis VKPM B-8611; assay: Sensitivity to antibiotics of the Bacillus type strains (inhibited growth area); type: cell-based
[2] = test system: B. licheniformis VKPM B-8610; assay: as above; type: cell-based, Bacillus licheniformis

COc1cc(Cc2cnc(N)nc2N)cc(OC)c1OC [Trimethoprim]
Diameter of the culture's inhibited growth area [1]: 23 ± 0.1 mm
Diameter of the culture's inhibited growth area ([2]; B. licheniformis VKPM B-8610): 25 ± 0.2 mm

CO/N=C(\C(=O)N[C@@H]1C(=O)N2C(C(=O)O)=C(COC(N)=O)CS[C@H]12)c1ccco1 [Cefuroxime]
Diameter of the culture's inhibited growth area [1]: 2 ± 0.1 mm
Diameter of the culture's inhibited growth area ([2]; B. licheniformis VKPM B-8610): 3 ± 0.1 mm

CCn1cc(C(=O)O)c(=O)c2cc(F)c(N3CCNCC3)cc21 [Norfloxacin]
Diameter of the culture's inhibited growth area [1]: 24 ± 0.2 mm
Diameter of the culture's inhibited growth area ([2]; B. licheniformis VKPM B-8610): 25 ± 0.2 mm

CN[C@H](CC(C)C)C(=O)N[C@H]1C(=O)N[C@@H](CC(N)=O)C(=O)N[C@H]2C(=O)N[C@H]3C(=O)N[C@H](C(=O)N[C@H](C(=O)O)c4cc(O)cc(O)c4-c4cc3ccc4O)[C@H](O)c3ccc(c(Cl)c3)Oc3cc2cc(c3O[C@@H]2O[C@H](CO)[C@@H](O)[C@H](O)[C@H]2O[C@H]2C[C@](C)(N)[C@H](O)[C@H](C)O2)Oc2ccc(cc2Cl)[C@H]1O [Vancomycin]
Diameter of the culture's inhibited growth area [1]: 12 ± 0.1 mm
Diameter of the culture's inhibited growth area ([2]; B. licheniformis VKPM B-8610): 10 ± 0.1 mm

CO[C@@]1(NC(=O)C(C(=O)O)c2ccc(O)cc2)C(=O)N2C(C(=O)O)=C(CSc3nnnn3C)CO[C@@H]21 (stereo partly shown) [Moxalactam]
Diameter of the culture's inhibited growth area [1]: 11 ± 0.2 mm
Diameter of the culture's inhibited growth area ([2]; B. licheniformis VKPM B-8610): 12 ± 0.3 mm

COc1cccc(OC)c1C(=O)N[C@@H]1C(=O)N2[C@@H]1SC(C)(C)[C@@H]2C(=O)O [Methicillin]
Diameter of the culture's inhibited growth area [1]: 20 ± 0.1 mm
Diameter of the culture's inhibited growth area ([2]; B. licheniformis VKPM B-8610): 10 ± 0.1 mm

NCC[C@H](O)C(=O)N[C@@H]1C[C@H](N)[C@@H](O[C@H]2O[C@H](CN)[C@@H](O)[C@H](O)[C@H]2O)[C@H](O)[C@H]1O[C@H]1O[C@H](CO)[C@@H](O)[C@H](N)[C@H]1O [Amikacin]
Diameter of the culture's inhibited growth area [1]: 22 ± 0.3 mm
Diameter of the culture's inhibited growth area ([2]; B. licheniformis VKPM B-8610): 17 ± 0.2 mm

CO[C@@]1(NC(=O)Cc2cccs2)C(=O)N2C(C(=O)O)=C(COC(N)=O)CS[C@@H]21 [Cefoxitin]
Diameter of the culture's inhibited growth area [1]: 18 ± 0.1 mm
Diameter of the culture's inhibited growth area ([2]; B. licheniformis VKPM B-8610): 13 ± 0.1 mm

CO/N=C(\C(=O)N[C@@H]1C(=O)N2C(C(=O)O)=C(COC(C)=O)CS[C@H]12)c1csc(N)n1 [Cefotaxime]
Diameter of the culture's inhibited growth area [1]: 15 ± 0.1 mm
Diameter of the culture's inhibited growth area ([2]; B. licheniformis VKPM B-8610): 9 ± 0.1 mm

CC1(C)S[C@@H]2[C@H](NC(=O)[C@H](NC(=O)N3CCNC3=O)c3ccccc3)C(=O)N2[C@H]1C(=O)O [Azlocillin]
Diameter of the culture's inhibited growth area [1]: 19 ± 0.1 mm
Diameter of the culture's inhibited growth area ([2]; B. licheniformis VKPM B-8610): 16 ± 0.1 mm

O=C1CN(/N=C/c2ccc([N+](=O)[O-])o2)C(=O)N1 [Nitrofurantoin]
Diameter of the culture's inhibited growth area [1]: 15 ± 0.2 mm
Diameter of the culture's inhibited growth area ([2]; B. licheniformis VKPM B-8610): 20 ± 0.1 mm

Polymyxin B
Diameter of the culture's inhibited growth area [1]: 11 ± 0.1 mm
Diameter of the culture's inhibited growth area ([2]; B. licheniformis VKPM B-8610): 10 ± 0.2 mm

CC1(C)S[C@@H]2[C@H](NC(=O)[C@H](N)c3ccccc3)C(=O)N2[C@H]1C(=O)O [Ampicillin]
Diameter of the culture's inhibited growth area [1]: 11 ± 0.2 mm
Diameter of the culture's inhibited growth area ([2]; B. licheniformis VKPM B-8610): ∘

CC1(C)S[C@@H]2[C@H](NC(=O)[C@H](C(=O)O)c3ccsc3)C(=O)N2[C@H]1C(=O)O [Ticarcillin]
Diameter of the culture's inhibited growth area [1]: 25 ± 0.4 mm
Diameter of the culture's inhibited growth area ([2]; B. licheniformis VKPM B-8610): 21 ± 0.2 mm

Cn1nnnc1SCC1=C(C(=O)O)N2C(=O)[C@@H](NC(=O)[C@H](O)c3ccccc3)[C@H]2SC1 [Cefamandole]
Diameter of the culture's inhibited growth area [1]: 35 ± 0.3 mm
Diameter of the culture's inhibited growth area ([2]; B. licheniformis VKPM B-8610): 15 ± 0.1 mm

CC(C)(O/N=C(\C(=O)N[C@@H]1C(=O)N2C(C(=O)[O-])=C(C[n+]3ccccc3)CS[C@H]12)c1csc(N)n1)C(=O)O [Ceftazidime]
Diameter of the culture's inhibited growth area [1]: 6 ± 0.3 mm
Diameter of the culture's inhibited growth area ([2]; B. licheniformis VKPM B-8610): 13 ± 0.2 mm

CO/N=C(\C(=O)N[C@@H]1C(=O)N2C(C(=O)O)=C(CSc3nc(=O)c(=O)[nH]n3C)CS[C@H]12)c1csc(N)n1 [Ceftriaxone]
Diameter of the culture's inhibited growth area [1]: 20 ± 0.4 mm
Diameter of the culture's inhibited growth area ([2]; B. licheniformis VKPM B-8610): 12 ± 0.2 mm

CCN1CCN(C(=O)N[C@@H](C(=O)N[C@@H]2C(=O)N3[C@@H]2SC(C)(C)[C@@H]3C(=O)O)c2ccccc2)C(=O)C1=O [Piperacillin]
Diameter of the culture's inhibited growth area [1]: 15 ± 0.3 mm
Diameter of the culture's inhibited growth area ([2]; B. licheniformis VKPM B-8610): 11 ± 0.1 mm

Cc1nnc(SCC2=C(C(=O)O)N3C(=O)[C@@H](NC(=O)Cn4cnnn4)[C@H]3SC2)s1 [Cefazolin]
Diameter of the culture's inhibited growth area [1]: 25 ± 0.2 mm
Diameter of the culture's inhibited growth area ([2]; B. licheniformis VKPM B-8610): 19 ± 0.2 mm

NC[C@H]1O[C@H](O[C@H]2[C@H](O)[C@@H](O[C@H]3O[C@H](CO)[C@@H](O)[C@H](N)[C@H]3O)[C@H](N)C[C@@H]2N)[C@H](N)C[C@@H]1O [Tobramycin]
Diameter of the culture's inhibited growth area [1]: 25 ± 0.1 mm
Diameter of the culture's inhibited growth area ([2]; B. licheniformis VKPM B-8610): 20 ± 0.2 mm

CC1(C)S[C@@H]2[C@H](NC(=O)[C@H](NC(=O)N3CCN(S(C)(=O)=O)C3=O)c3ccccc3)C(=O)N2[C@H]1C(=O)O [Mezlocillin]
Diameter of the culture's inhibited growth area [1]: 21 ± 0.2 mm
Diameter of the culture's inhibited growth area ([2]; B. licheniformis VKPM B-8610): 15 ± 0.2 mm

CN(C)[C@@H]1C(O)=C(C(N)=O)C(=O)[C@@]2(O)C(O)=C3C(=O)c4c(O)cccc4[C@@](C)(O)[C@H]3C[C@@H]12 [Tetracycline]
Diameter of the culture's inhibited growth area [1]: 26 ± 0.1 mm
Diameter of the culture's inhibited growth area [2]: 24 ± 0.1 mm

CC1(C)S[C@@H]2[C@H](NC(=O)C(C(=O)O)c3ccccc3)C(=O)N2[C@H]1C(=O)O (stereo partly shown) [Carbenicillin]
Diameter of the culture's inhibited growth area [1]: 23 ± 0.5 mm
Diameter of the culture's inhibited growth area ([2]; B. licheniformis VKPM B-8610): 20 ± 0.1 mm

CC1(C)S[C@@H]2[C@H](NC(=O)[C@H](N)c3ccc(O)cc3)C(=O)N2[C@H]1C(=O)O [Amoxicillin]
Diameter of the culture's inhibited growth area [1]: 19 ± 0.2 mm
Diameter of the culture's inhibited growth area ([2]; B. licheniformis VKPM B-8610): 16 ± 0.1 mm

CC1(C)S[C@@H]2[C@H](NC(=O)Cc3ccccc3)C(=O)N2[C@H]1C(=O)O [Benzylpenicillin]
Diameter of the culture's inhibited growth area [1]: 7 ± 0.1 mm
Diameter of the culture's inhibited growth area ([2]; B. licheniformis VKPM B-8610): 3 ± 0.2 mm

CCN1CCN(C(=O)N[C@@H](C(=O)N[C@@H]2C(=O)N3C(C(=O)O)=C(CSc4nnnn4C)CS[C@H]23)c2ccc(O)cc2)C(=O)C1=O [Cefoperazone]
Diameter of the culture's inhibited growth area [1]: 15 ± 0.2 mm
Diameter of the culture's inhibited growth area ([2]; B. licheniformis VKPM B-8610): 13 ± 0.1 mm

Cc1onc(-c2ccccc2)c1C(=O)N[C@@H]1C(=O)N2[C@@H]1SC(C)(C)[C@@H]2C(=O)O [Oxacillin]
Diameter of the culture's inhibited growth area [1]: 15 ± 0.3 mm
Diameter of the culture's inhibited growth area ([2]; B. licheniformis VKPM B-8610): 11 ± 0.1 mm

CC(=O)OCC1=C(C(=O)O)N2C(=O)[C@@H](NC(=O)Cc3cccs3)[C@H]2SC1 [Cephalothin]
Diameter of the culture's inhibited growth area [1]: 35 ± 0.1 mm
Diameter of the culture's inhibited growth area ([2]; B. licheniformis VKPM B-8610): 21 ± 0.3 mm

O=C(N[C@H](CO)[C@H](O)c1ccc([N+](=O)[O-])cc1)C(Cl)Cl [Chloramphenicol]
Diameter of the culture's inhibited growth area [1]: 18 ± 0.3 mm
Diameter of the culture's inhibited growth area ([2]; B. licheniformis VKPM B-8610): 10 ± 0.1 mm

CO/N=C(\C(=O)N[C@@H]1C(=O)N2C(C(=O)O)=CCS[C@H]12)c1csc(N)n1 [Ceftizoxime]
Diameter of the culture's inhibited growth area [1]: 3 ± 0.1 mm
Diameter of the culture's inhibited growth area ([2]; B. licheniformis VKPM B-8610): 11 ± 0.1 mm

CCn1cc(C(=O)O)c(=O)c2ccc(C)nc21 [Nalidixic acid]
Diameter of the culture's inhibited growth area [1]: 21 ± 0.1 mm
Diameter of the culture's inhibited growth area ([2]; B. licheniformis VKPM B-8610): 15 ± 0.1 mm

NC[C@H]1O[C@H](O[C@H]2[C@H](O)[C@@H](O[C@H]3O[C@H](CO)[C@@H](O)[C@H](N)[C@H]3O)[C@H](N)C[C@@H]2N)[C@H](O)[C@@H](O)[C@@H]1O [Kanamycin]
Diameter of the culture's inhibited growth area [1]: 22 ± 0.2 mm
Diameter of the culture's inhibited growth area ([2]; B. licheniformis VKPM B-8610): 21 ± 0.1 mm

Gentamicin
Diameter of the culture's inhibited growth area [1]: 25 ± 0.3 mm
Diameter of the culture's inhibited growth area ([2]; B. licheniformis VKPM B-8610): 19 ± 0.2 mm

C[C@@H](O)[C@H]1C(=O)N2C(C(=O)O)=C(SCCN=CN)C[C@H]12 [Imipenem]
Diameter of the culture's inhibited growth area [1]: 38 ± 0.2 mm
Diameter of the culture's inhibited growth area ([2]; B. licheniformis VKPM B-8610): 30 ± 0.1 mm

CCC[C@@H]1C[C@@H](C(=O)N[C@@H]([C@H]2O[C@H](SC)[C@H](O)[C@@H](O)[C@H]2O)[C@H](C)Cl)N(C)C1 [Clindamycin]
Diameter of the culture's inhibited growth area [1]: 9 ± 0.2 mm
Diameter of the culture's inhibited growth area ([2]; B. licheniformis VKPM B-8610): 12 ± 0.1 mm
